The assay concerns the target T1, human TRPV4 (Homo sapiens, UniProt Q9HBA0).
T1 construct: host or cells: tetracycline-inducible Flp-In T-REx 293 cells
Nature of the assay: Hypotonicity-induced Ca2+ influx (Fluo-4, FDSS). Format: cell-based. Summed up:
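Flp-In T-REx 293 cells with tetracycline-induced human TRPV4, loaded with Fluo-4 for 60 min at 25 °C. Compound added 5 min before hypotonic mannitol/CaCl2 solution. Ca2+ signal recorded for 4.5 min on FDSS.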

[1] abbreviates: Flp-In T-REx 293 cells expressing human TRPV4, examples listed under heading 'Human IC50<50 nM'.
[2] abbreviates: Flp-In T-REx 293 cells stably expressing human TRPV4, compounds listed by potency bin (<10 nM Tables 96-1/96-2, <3 nM Table 97).

Some results are limits rather than exact numbers.

T1 sequence (Q9HBA0 whole entry): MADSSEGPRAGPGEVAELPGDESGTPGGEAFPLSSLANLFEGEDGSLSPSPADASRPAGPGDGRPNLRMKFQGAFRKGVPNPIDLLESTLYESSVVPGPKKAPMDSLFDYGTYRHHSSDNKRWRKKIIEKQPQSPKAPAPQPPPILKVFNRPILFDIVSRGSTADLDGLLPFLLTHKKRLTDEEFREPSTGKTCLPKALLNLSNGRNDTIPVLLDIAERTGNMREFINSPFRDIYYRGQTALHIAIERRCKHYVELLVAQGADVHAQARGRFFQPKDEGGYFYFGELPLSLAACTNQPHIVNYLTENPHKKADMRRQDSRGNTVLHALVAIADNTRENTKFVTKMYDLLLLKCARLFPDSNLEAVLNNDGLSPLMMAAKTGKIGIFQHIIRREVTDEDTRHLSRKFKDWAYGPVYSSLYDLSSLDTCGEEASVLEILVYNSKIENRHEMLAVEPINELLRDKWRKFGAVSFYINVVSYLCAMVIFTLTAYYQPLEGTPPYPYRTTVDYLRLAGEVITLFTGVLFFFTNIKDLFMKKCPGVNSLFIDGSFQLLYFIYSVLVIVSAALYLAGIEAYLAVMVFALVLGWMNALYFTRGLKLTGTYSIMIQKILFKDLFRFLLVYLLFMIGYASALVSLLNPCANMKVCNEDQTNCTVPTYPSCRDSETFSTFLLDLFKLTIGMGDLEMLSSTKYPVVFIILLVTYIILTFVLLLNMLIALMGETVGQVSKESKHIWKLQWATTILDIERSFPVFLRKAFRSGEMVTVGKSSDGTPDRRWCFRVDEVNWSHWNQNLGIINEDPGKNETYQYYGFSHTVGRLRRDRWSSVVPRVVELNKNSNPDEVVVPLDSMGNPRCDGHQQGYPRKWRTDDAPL

In general, IC50 refers to the concentration needed to halve the response being measured. `O=C(C(O)c1cccc(C2CC2)c1)N1CCCc2nc(C3(c4cccs4)CC3)[nH]c(=O)c2C1` (stereo not drawn) [18-13]: the concentration for half-maximal inhibition (IC50) under setting [1] is under 50 nM. For `CC(C)c1csc(C2(c3nc4c(c(=O)[nH]3)CN(C(=O)C(O)c3cccc(C(C)(C)C)c3)CCC4)CC2)c1` (stereo not drawn) [18-15], the IC50 reads like this: under setting [1], under 50 nM; under setting [2], under 10 nM. On to `CC(C)c1csc(C2(c3nc4c(c(=O)[nH]3)CN(C(=O)C(O)c3cccc(C(F)(F)F)c3F)CCC4)CC2)c1` (stereo not drawn) [18-16], for which the IC50 runs as follows: under setting [1], under 50 nM; under setting [2], under 10 nM. As to `CC(C)c1csc(C2(c3nc4c(c(=O)[nH]3)CN(C(=O)C(O)c3cccc(Cl)c3F)CCC4)CC2)c1` (stereo not drawn) [18-17], the IC50 was under 50 nM under setting [1] and under 3 nM under setting [2].

For `CC(C)c1csc(C2(c3nc4c(c(=O)[nH]3)CN(C(=O)C(O)c3cccc(S(F)(F)(F)(F)F)c3)CCC4)CC2)c1` (stereo not drawn) [18-18], the concentration for half-maximal inhibition (IC50) is under 50 nM under setting [1] and under 10 nM under setting [2].

As to `CC(C)c1csc(C2(c3nc4c(c(=O)[nH]3)CN(C(=O)C(O)c3cccc(SC(F)(F)F)c3)CCC4)CC2)c1` (stereo not drawn) [18-19], the IC50 reads like this: under setting [1], under 50 nM; under setting [2], under 10 nM. Turning to `CC(C)c1csc(C2(c3nc4c(c(=O)[nH]3)CN(C(=O)C(O)c3cccc(-c5cccc(OC(F)(F)F)c5)c3)CCC4)CC2)c1` (stereo not drawn) [18-20], the IC50 reads like this: under setting [1], under 50 nM; under setting [2], under 10 nM.

Consider `CC(C)c1csc(C2(c3nc4c(c(=O)[nH]3)CN(C(=O)C(O)c3cccc(-c5cccc(C(F)(F)F)c5)c3)CCC4)CC2)c1` (stereo not drawn) [18-21], for which the IC50 is under 50 nM under setting [1] and under 10 nM under setting [2]. `O=C([C@H](O)c1cccc(Cl)c1)N1CCCc2nc(C3(c4cc(C5CCCCC5)cs4)CC3)[nH]c(=O)c2C1` [18-22]: the IC50 is under 50 nM under setting [1] and under 3 nM under setting [2]. Turning to `O=C([C@H](O)c1cccc(Cl)c1)N1CCCc2nc(C3(c4cc(C5CCCC5)cs4)CC3)[nH]c(=O)c2C1` [18-23], the 50% inhibitory concentration (IC50) is under 50 nM under setting [1] and under 3 nM under setting [2]. In the same order, the values of `CC(C)c1csc(C2(c3nc4c(c(=O)[nH]3)CN(C(=O)[C@H](O)c3cccc(Cl)c3)CCC4)CC2)c1` [18-24] are under 50 nM and under 3 nM. Turning to `O=C([C@H](O)c1cccc(Cl)c1)N1CCCc2nc(C3(c4cc(C5CCOCC5)cs4)CC3)[nH]c(=O)c2C1` [18-25], the IC50 by setting is: under setting [1], under 50 nM; under setting [2], under 10 nM.

Regarding `O=C([C@H](O)c1cccc(-c2cccc(OC(F)(F)F)c2)c1)N1CCCc2nc(C3(c4cc(-c5ccccc5)cs4)CC3)[nH]c(=O)c2C1` [18-26], the IC50 under setting [1] was under 50 nM and the IC50 under setting [2] was under 10 nM.

With `O=C(Cc1cccc(-c2cccc(Cl)c2)c1)N1CCCc2nc(C3(c4cc(-c5ccccc5)cs4)CC3)[nH]c(=O)c2C1` [18-27], the IC50 runs as follows: under setting [1], under 50 nM; under setting [2], under 10 nM. In the same order, the values of `O=C(Cc1cccc(-c2cccc(C(F)(F)F)c2)c1)N1CCCc2nc(C3(c4cc(-c5ccccc5)cs4)CC3)[nH]c(=O)c2C1` [18-28] are under 50 nM and under 10 nM. As for `CC(C)c1csc(C2(c3nc4c(c(=O)[nH]3)CN(C(=O)Cc3cccc(-c5cccc(C(F)(F)F)c5)c3)CCC4)CC2)c1` [18-29], the 50% inhibitory concentration (IC50) is under 50 nM under setting [1] and under 10 nM under setting [2]. As to `CC(C)c1csc(C2(c3nc4c(c(=O)[nH]3)CN(C(=O)Cc3cccc(-c5cccc(Cl)c5)c3)CCC4)CC2)c1` [18-30], the IC50 is under 50 nM under setting [1] and under 10 nM under setting [2]. In the case of `O=C([C@H](O)c1cccc(C(F)(F)F)c1)N1CCCc2nc(C3(c4cnc(-c5ccccc5)o4)CC3)[nH]c(=O)c2C1` [18-31], under setting [1], the IC50 was under 50 nM. As to `O=C([C@H](O)c1cccc(C(F)(F)F)c1)N1CCCc2nc(C3(c4cncc(C5CCCCC5)c4)CC3)[nH]c(=O)c2C1` [19-1], the IC50 runs as follows: under setting [1], under 50 nM; under setting [2], under 3 nM. `CC(C)c1cncc(C2(c3nc4c(c(=O)[nH]3)CN(C(=O)[C@H](O)c3cccc(C(F)(F)F)c3)CCC4)CC2)c1` [19-2]: the IC50 is, setting by setting: under setting [1], under 50 nM; under setting [2], under 10 nM. Consider `O=C([C@H](O)c1cccc(C(F)(F)F)c1F)N1CCCc2nc(C3(c4cncc(-c5ccccc5)c4)CC3)[nH]c(=O)c2C1` [19-3], for which the IC50 under setting [1] is under 50 nM and the IC50 under setting [2] is under 10 nM. Taken in the same sequence, the figures for `CC(C)c1cncc(C2(c3nc4c(c(=O)[nH]3)CN(C(=O)C(O)c3cccc(C(C)(C)C)c3)CCC4)CC2)c1` (stereo not drawn) [19-4] were under 50 nM and under 10 nM.

Consider `CC(C)(C)c1cccc(C(O)C(=O)N2CCCc3nc(C4(c5cncc(-c6ccccc6)c5)CC4)[nH]c(=O)c3C2)c1` (stereo not drawn) [19-5], for which the half-maximal inhibitory concentration (IC50) runs as follows: under setting [1], under 50 nM; under setting [2], under 10 nM. In turn, `O=C([C@H](O)c1cccc(C(F)(F)F)c1)N1CCCc2nc(C3(c4cncc(Br)c4)CC3)[nH]c(=O)c2C1` [19-6] showed an IC50 under setting [1] of under 50 nM. Consider `CC(C)c1cncc(C2(c3nc4c(c(=O)[nH]3)CN(C(=O)C(O)c3cccc(C(F)(F)F)c3F)CCC4)CC2)c1` (stereo not drawn) [19-7], for which the IC50 under setting [1] is under 50 nM. `O=C([C@H](O)c1cccc(C(F)(F)F)c1)N1CCCc2nc(C3(c4ccnc(Oc5ccccc5)c4)CC3)[nH]c(=O)c2C1` [19-8] showed a half-inhibitory concentration (IC50) under setting [1] of under 50 nM. Under setting [1], `O=C([C@H](O)c1cccc(Cl)c1)N1CCCc2nc(C3(c4ccnc(Oc5ccccc5)c4)CC3)[nH]c(=O)c2C1` [19-9] displayed an IC50 of under 50 nM. In the case of `O=C([C@H](O)c1cccc(Cl)c1)N1CCCc2nc(C3(c4cncc(-c5cnsc5)c4)CC3)[nH]c(=O)c2C1` [19-10], the IC50 under setting [1] was under 50 nM. In turn, `O=C(C(O)c1cccc(Cl)c1F)N1CCCc2nc(C3(c4cncc(-c5ccccc5)c4)CC3)[nH]c(=O)c2C1` (stereo not drawn) [19-11] gave an IC50 under setting [1] of under 50 nM and an IC50 under setting [2] of under 3 nM. With `CC(C)c1cncc(C2(c3nc4c(c(=O)[nH]3)CN(C(=O)C(O)c3cccc(Cl)c3F)CCC4)CC2)c1` (stereo not drawn) [19-12], the IC50 is under 50 nM under setting [1] and under 10 nM under setting [2]. The compound `O=C([C@H](O)c1cccc(C(F)(F)F)c1)N1CCCc2nc(C3(c4cncc(C(F)(F)F)c4)CC3)[nH]c(=O)c2C1` [19-13] registered an IC50 under setting [1] of under 50 nM and an IC50 under setting [2] of under 10 nM. Taken in the same sequence, the figures for `O=C(Cc1cccc(-c2cccc(C(F)(F)F)c2)c1)N1CCCc2nc(C3(c4cncc(-c5ccccc5)c4)CC3)[nH]c(=O)c2C1` [19-14] were under 50 nM and under 10 nM. For the compound `O=C(Cc1cccc(-c2cccc(Cl)c2)c1)N1CCCc2nc(C3(c4cncc(-c5ccccc5)c4)CC3)[nH]c(=O)c2C1` [19-15], the IC50 reads like this: under setting [1], under 50 nM; under setting [2], under 10 nM. In the case of `O=C(N1CCCc2nc(C3(c4ccccc4)CC3)[nH]c(=O)c2C1)C(F)(F)c1cccc(C(F)(F)F)c1` [20-1], the half-maximal inhibitory concentration (IC50) is, setting by setting: under setting [1], under 50 nM; under setting [2], under 3 nM. `O=C(N1CCCc2nc(C3(c4cccc(Cl)c4)CC3)[nH]c(=O)c2C1)C(F)(F)c1cccc(Cl)c1` [20-2]: the IC50 is, setting by setting: under setting [1], under 50 nM; under setting [2], under 3 nM. As for `O=C(N1CCCc2nc(C3(c4cccc(F)c4)CC3)[nH]c(=O)c2C1)C(F)(F)c1cccc(C(F)(F)F)c1` [20-3], the IC50 reads like this: under setting [1], under 50 nM; under setting [2], under 3 nM. In the same order, the values of `O=C(N1CCCc2nc(C3(c4cccc(Cl)c4)CC3)[nH]c(=O)c2C1)C(F)(F)c1cccc(C(F)(F)F)c1` [20-4] are under 50 nM and under 3 nM. In turn, `O=C(N1CCCc2nc(C3(c4cccc(F)c4)CC3)[nH]c(=O)c2C1)C(F)(F)c1cccc(Cl)c1` [20-5] had an IC50 under setting [1] of under 50 nM and a half-inhibitory concentration (IC50) under setting [2] of under 3 nM.

Values taken from patent publication US12673946B2, “Pyrimidin-4(3H)-one derivatives as TRPV4 antagonists” (RaQualia Pharma Inc., priority 2020, dated 2026).
